Source: patent publication US7223758B2, “Pyridazine derivative, pharmaceutical composition thereof, its pharmaceutical use, and process for its preparation” (Sanofi-Aventis, priority 2002, dated 2007)

Molecular target: T1, cathepsin K (Homo sapiens, UniProt P43235)
T1 sequence (P43235 115-329): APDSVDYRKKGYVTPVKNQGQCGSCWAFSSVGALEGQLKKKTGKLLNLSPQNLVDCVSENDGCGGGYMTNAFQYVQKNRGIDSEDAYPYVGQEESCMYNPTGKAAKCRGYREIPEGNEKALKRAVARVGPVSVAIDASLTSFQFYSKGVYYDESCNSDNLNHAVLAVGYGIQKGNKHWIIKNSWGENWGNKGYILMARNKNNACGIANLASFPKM
Assay: Study of the inhibition of cathepsin K (fluorogenic substrate Z-Val-Arg-AMC)
Format: biochemical
Conditions: cathepsin K 5 ng/ml, substrate Z-Val-Arg-AMC 20 μM, pH 5.5, two hours at room temperature; concentration range from 50 to 0.5 μM
Protocol: Pharmacological study of the products of the invention Study of the inhibition of cathepsin K
The test products (10 mM) are diluted to 1 mM in DMSO and distributed in polystyrene Nunc 96-well plates at a rate of 2 μl per well. Column 12 of the plate is reserved for the controls and thus receives […] of DMSO (without products) per well. The plates are stored at −80° C. and thawed on the day of the experiment.
The products are diluted to 50 μM by addition of 38 μl of reaction buffer: 100 mM sodium acetate, 5 mM EDTA, 1 mM DTT, pH 5.5. The addition and all the pipetting are performed with a 96-tip CybiWell pipette. After mixing the solutions, each product is transferred into 2 wells (duplicates) of a black Greiner 384-well plate at a rate of 10 μl per well. Two 96-well plates can thus be tested in one 384-well plate.
A solution of substrate, Z-Val-Arg-AMC (Calbiochem), at a concentration of 50 μm is prepared in the reaction buffer. The substrate is the distributed among all the wells of the 384-well plate (20 μl per well).
A solution of cathepsin K at a concentration of 12.5 ng/ml is prepared in the reaction buffer and distributed among all the wells of the 384-well plate (20 μl per well) except for the 16 wells serving as 100% inhibition controls (columns 23 and 24, lines I to P), which receive 20 μl of enzyme-free buffer. […] are performed in columns 23 and 24, lines A to H, which contain no products.
The plates are then incubated for two hours at room temperature, and then read on a Fluoroskan (Labsystems): excitation 390 nm; emission 460 nm.
The final concentrations of each of the reagents are: Products 10 μM, Substrate 20 μM, enzyme 5 ng/ml.
The percentages of inhibition for each of the products are calculated by using the points at 0 and 100% inhibition of each plate as references. The products showing significant inhibition are then retested over a concentration range from 50 to 0.5 μM to determine an IC50.

| Compound | IC50 [µM] |
| --- | --- |
| N#CC(NC(=O)[C@@H]1CCCNN1C(=O)CCNC(=O)Cc1ccccc1)c1cccc(Oc2ccccc2)c1 (mixture of isomers) [Example 5, (3S)-2-[3-[(phenylacetyl)amino]-1-oxopropyl]-N-[cyano-(3-phenoxyphenyl)methyl]hexahydro-3-pyridazine-carboxamide] | < 1 |
| N#CC(OC(=O)[C@@H]1CCCN(C(=O)OCc2ccccc2)N1C(=O)CCNC(=O)Cc1ccccc1)c1cccc(Oc2ccccc2)c1 (mixture of isomers) [Example 7, 1-(phenylmethyl)-3-[(R)-cyano(3-phenoxyphenyl)methyl](3S)-2-[1-oxo-3-[(phenylacetyl)amino]propyl]tetrahydro-1,3(2H)-pyridazinedicarboxylate] | 1 to 10 |
| N#CC(OC(=O)[C@@H]1CCCNN1C(=O)CCNC(=O)Cc1ccccc1)c1cccc(Oc2ccccc2)c1 (mixture of isomers) [Example 8, 3-[cyano(3-phenoxyphenyl)methyl] (3S)-2-[1-oxo-3-[(phenylacetyl)-amino]propyl]tetrahydro-1,3-(2H)-pyridazinecarboxylate] | 1 to 10 |
| N#CC(NC(=O)[C@@H]1CCCN(C(=O)OCc2ccccc2)N1C(=O)CCNC(=O)Cc1ccccc1)c1cccc(Oc2ccccc2)c1 (stereo partly drawn) [Example 4, (phenylmethyl) (3S)-2-[1-oxo-3-[(phenylacetyl)amino]propyl]-3-[[[cyano(3-phenoxy-phenyl)methyl]amino]carbonyl]tetrahydro-1(2H)pyridazine-carboxylate] | 1 to 10 |
| N#CC(OC(=O)[C@@H]1CCCN(C(=O)OCc2ccccc2)N1C(=O)CCNC(=O)Cc1ccccc1)c1cccc(Oc2ccc(Br)cc2)c1 (stereo partly drawn) [Example 9, 1-(phenylmethyl)-3-[cyano-3-[(4-bromophenoxy)phenyl]-methyl] (3S)2-[1-oxo-3-[(phenylacetyl)amino]propyl]-tetrahydro-1,3(2H)-pyridazinedicarboxylate] | 1 to 10 |
| N#CC(NC(=O)[C@@H]1CCCN(C(=O)OCc2ccccc2)N1C(=O)CCNC(=O)Cc1ccccc1)c1ccccc1 (stereo partly drawn) [Example 10, (phenylmethyl) (3S)-3-[[(cyanophenylmethyl)amino]carbonyl]-2-[1-oxo-3-[(phenylacetyl)amino]propyl]tetrahydro-1(2H)-pyridazinecarboxylate] | 1 to 10 |
| N#CC(NC(=O)[C@@H]1CCCNN1C(=O)CCNC(=O)Cc1ccccc1)c1ccccc1 (stereo partly drawn) [Example 11, (3S)-N-(cyanophenyl-methyl)-2-[1-oxo-3-[(phenylacetyl)amino]propyl]hexa-hydro-3-pyridazinecarboxamide] | 1 to 10 |
| N#CCNC(=O)[C@@H]1CCCN(C(=O)OCc2ccccc2)N1C(=O)CCNC(=O)Cc1ccccc1 [Example 12] | 1 to 10 |
| N#CNC(=O)[C@@H]1CCCNN1C(=O)CCNC(=O)Cc1ccccc1 [Example 13, (3S)-N-cyano-2-[1-oxo-3-[(phenylacetyl)amino]propyl]hexahydro-3-pyridazinecarb-oxamide] | 1 to 10 |
| N#CC(NC(=O)[C@@H]1CCCNN1C(=O)CCc1ccccc1)c1cccc(Oc2ccccc2)c1 (stereo partly drawn) [Example 15, (3S)-N-[cyano(3-phenoxyphenyl)methyl]-2-(1-oxo-3-phenylpropyl)hexa-hydro-3-pyridazinecarboxamide] | < 1 |
| (phenylmethyl) (3S)-3-[[[cyano(3-phenoxyphenyl)methyl]amino]carbonyl]-2-[3-phenyl-1-oxopropyl]tetrahydro-1(2H)-pyridazine-carboxylate [Example 14] | 1 to 10 |
